Assays:
[1] = biological target: T1, recombinant human IL17a (binding to its receptor IL17R) (Homo sapiens, UniProt Q16552); assay: IL-17 competition ELISA I (IL17a coated, IL17R/Fc binding)
T1 construct: purchased R&D Systems 317-ILB (IL17a); 177-IR (IL17R/Fc)
T1 sequence (Q16552 20-155 limits assumed): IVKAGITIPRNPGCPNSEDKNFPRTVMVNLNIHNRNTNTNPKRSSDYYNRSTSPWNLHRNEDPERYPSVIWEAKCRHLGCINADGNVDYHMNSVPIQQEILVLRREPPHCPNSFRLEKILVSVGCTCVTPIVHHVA
Method: ELISA I: The ability of the compounds to block binding of IL17a to its receptor, IL17R, was analyzed in a competition ELISA format. High binding 96-well plates (Costar #9018) were coated with 20 nM of recombinant human IL17a (R&D Systems #317-ILB) in PBS (0.64 μg/mL), 100 μL/well, for 30 min at 37′C followed by 5 min at 4′C. Plates were then washed in PBST (PBS/0.05% Tween-20) on a plate washer, (Biotech EL-450) blocked with protein-free blocking buffer (Thermo Scientific #37573) in 250 μL/well for 30 min on shaker at room temperature, and then washed again. Compound dilutions prepared in PBST were added into the wells in duplicates followed by the addition of IL17R/Fc (R&D Systems #177-IR) at a final concentration of 12 nM. Plates were then incubated for 30 min at room temperature on the shaker. Wells with no compound served as a positive “no competitor” control, while wells with no IL17R/Fc and no compound served as a blank negative control. After an additional PBST wash, 50 ng/mL HRP-conjugated goat anti-human Fc IgG (KPL #04-10-20) was added to the plate for 30 min at room temperature, followed by PBST wash and addition of SureBlue™ TMB (KPL #52-00-03). After the sufficient color development, the reaction was fixed by the addition of 100 μL/well 0.5 N HCl and absorbance was measured at 450 nm on Biotek plate reader.
Data were processed using BioAssay Enterprise v10.1.4 (CambridgeSoft) software. Linear OD λ450 were plotted against log concentration (x) and fitted to a 4-parameter logistic equation. IC50 was calculated using positive ‘no competitor’ control data as an upper limit and blank control as a lower limit in each assay.

[2] = biological target: T2, biotinylated human IL-17 (binding to IL17R/Fc) (Homo sapiens, UniProt Q16552); assay: IL-17 competition ELISA II (captured IL17R/Fc, biotinylated IL-17)
T2 construct: purchased R&D Systems 317-ILB (IL-17, biotinylated); 177-IR (IL17R/Fc)
T2 sequence (Q16552 20-155 limits assumed): T1 sequence (Q16552 20-155 limits assumed)
In short: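 Anti-human IgG-coated plates captured IL17R/Fc (10 nM), then compound (5-fold dilutions from 1 μM) and biotinylated human IL-17 (20 nM stock) were added for 30 min at room temperature in PBST. Bound IL-17 detected by streptavidin-HRP/TMB at 450 nm. IC50 from 4-parameter logistic fit between no-competitor and blank controls.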

SMILES	IC50 [1]	IC50 [2]
O=C1CC2(CCCC2)CC(=O)N[C@H](Cc2ccc(NC(=O)[C@@H](NC(=O)Cc3ccc(CO)cc3)C3CCCCC3)cc2)C(=O)NCCCCCCN1 [Compound 355]	1000 to 10000 nM	< 100 nM
O=C1CC2(CCCC2)CC(=O)N[C@H](Cc2ccc(NC(=O)[C@@H](NC(=O)Cc3ccc(CO)cc3)C3CCCCC3)cc2)C(=O)NCCCCCCCN1 [Compound 357]	100 to 1000 nM	< 100 nM
O=C1CNC(=O)[C@@H](Cc2ccc(NC(=O)[C@@H](NC(=O)Cc3ccc(CO)cc3)C3CCCCC3)cc2)NC(=O)CC2(CCCC2)CC(=O)NCCCCCN1 [Compound 375]	100 to 1000 nM	< 100 nM
O=C1CC2(CCCC2)CC(=O)N[C@H](Cc2ccc(NC(=O)[C@H](Cc3ccccc3Cl)NC(=O)Cc3ccc(CO)cc3)cc2)C(=O)NCCCCCCCCCN1 [Compound 358]	100 to 1000 nM	< 100 nM
O=C1CC2(CCCC2)CC(=O)N[C@H](Cc2ccc(NC(=O)[C@H](Cc3ccccc3Cl)NC(=O)Cc3ccc(CO)cc3)cc2)C(=O)NCCCCCCN1 [Compound 354]	100 to 1000 nM	< 100 nM
O=C1CC2(CCCC2)CC(=O)N[C@H](Cc2ccc(NC(=O)[C@H](Cc3ccccc3Cl)NC(=O)Cc3ccccc3)cc2)C(=O)NCCCCCCCCCN1 [Compound 349]	1000 to 10000 nM	< 100 nM
O=C1CC2(CCCC2)CC(=O)N[C@H](Cc2ccc(NC(=O)[C@@H](NC(=O)Cc3ccc(CO)cc3)C3CCCCC3)cc2)C(=O)NCCOCCOCCN1 [Compound 344]	1000 to 10000 nM	100 to 1000 nM
O=C1CC2(CCCC2)CC(=O)N[C@H](Cc2ccc(NC(=O)[C@H](Cc3ccccc3Cl)NC(=O)Cc3ccccc3)cc2)C(=O)NCCCCCCCN1 [Compound 347]	100 to 1000 nM	< 100 nM
O=C1CNC(=O)[C@@H](Cc2ccc(NC(=O)[C@@H](NC(=O)c3cccc(F)c3)C3CCCCC3)cc2)NC(=O)CC2(CCCC2)CC(=O)NCCCCCN1 [Compound 382]	100 to 1000 nM	< 100 nM
C[C@H]1NC(=O)[C@@H](Cc2ccc(NC(=O)[C@@H](NC(=O)Cc3ccc(CO)cc3)C3CCCCC3)cc2)NC(=O)CC2(CCCC2)CC(=O)NCCCCCNC1=O [Compound 360]	100 to 1000 nM	< 100 nM
O=C1CC2(CCCC2)CC(=O)N[C@H](Cc2ccc(NC(=O)[C@@H](NC(=O)Cc3ccccc3)C3CCCCC3)cc2)C(=O)NCCOCCOCCN1 [Compound 333]	100 to 1000 nM	< 100 nM
C[C@H]1NC(=O)[C@@H](Cc2ccc(NC(=O)[C@@H](NC(=O)c3cccnc3)C3CCCCC3)cc2)NC(=O)CC2(CCCC2)CC(=O)N[C@H](C(=O)O)CCCCNC1=O [Compound 370]	100 to 1000 nM	< 100 nM
O=C1CNC(=O)[C@@H](Cc2ccc(NC(=O)[C@@H](NC(=O)c3cccnc3)C3CCCCC3)cc2)NC(=O)CC2(CCCC2)CC(=O)N[C@H](C(=O)O)CCCCN1 [Compound 384]	100 to 1000 nM	< 100 nM
O=C1CNC(=O)[C@@H](Cc2ccc(NC(=O)[C@H](Cc3ccccc3Cl)NC(=O)c3ccccc3O)cc2)NC(=O)CC2(CCCC2)CC(=O)NCCCCCN1 [Compound 330]	100 to 1000 nM	
C[C@H]1C(=O)NCCCCCNC(=O)CC2(CCCC2)CC(=O)N[C@H](Cc2ccc(NC(=O)[C@H](Cc3ccccc3Cl)NC(=O)Cc3ccccc3)cc2)C(=O)N1C [Compound 291]	1000 to 10000 nM	
O=C1CNC(=O)[C@@H](Cc2ccc(NC(=O)[C@H](Cc3ccccc3Cl)NC(=O)Cc3ccccc3)cc2)NC(=O)CC2(CCCC2)CC(=O)NCCCCCOC(=O)CN1 [Compound 322]	100 to 1000 nM	
O=C1CNC(=O)[C@@H](Cc2ccc(NC(=O)[C@H](Cc3ccccc3Cl)NC(=O)CN3CCCC3)cc2)NC(=O)CC2(CCCC2)CC(=O)NCCCCCN1 [Compound 301]	1000 to 10000 nM	
O=C1CNC(=O)[C@@H](Cc2ccc(NC(=O)[C@H](Cc3ccccc3Cl)NC(=O)CN3CCCCC3)cc2)NC(=O)CC2(CCCC2)CC(=O)NCCCCCN1 [Compound 300]	100 to 1000 nM	
O=C1CNC(=O)[C@@H](Cc2ccc(NC(=O)[C@H](Cc3ccc(Cl)c(Cl)c3)NC(=O)Cc3ccccc3)cc2)NC(=O)CC2(CCCC2)CC(=O)NCCCCCN1 [Compound 241]	100 to 1000 nM	
CN(C)CC(=O)N[C@@H](Cc1ccccc1Cl)C(=O)Nc1ccc(C[C@H]2NC(=O)CC3(CCCC3)CC(=O)NCCCCCNC(=O)CNC2=O)cc1 [Compound 303]	100 to 1000 nM	
CN1CCCCCNC(=O)CNC(=O)[C@@H](Cc2ccc(NC(=O)[C@H](Cc3ccccc3Cl)NC(=O)c3ccc(F)cc3)cc2)NC(=O)CC2(CCCC2)CC1=O [Compound 306]	100 to 1000 nM	
O=C1CC2(CCCC2)CC(=O)N[C@H](Cc2ccc(NC(=O)[C@@H](NC(=O)Cc3ccccc3)C3CCCCC3)cc2)C(=O)N[C@H](Cc2ccccc2)C(=O)NCCCCCN1 [Compound 331]	100 to 1000 nM	
CN1CCCCCNC(=O)CNC(=O)[C@@H](Cc2ccc(NC(=O)[C@@H](NC(=O)Cc3ccc(CO)cc3)C3CCCCC3)cc2)NC(=O)CC2(CCCC2)CC1=O [Compound 343]	100 to 1000 nM	
O=C1CNC(=O)[C@@H](Cc2ccc(NC(=O)[C@H](Cc3ccccc3Cl)NC(=O)c3ccc(F)cc3O)cc2)NC(=O)CC2(CCCC2)CC(=O)NCCCCCN1 [Compound 278]	1000 to 10000 nM	
O=C1CC2(CCCC2)CC(=O)N[C@H](Cc2ccc(NC(=O)[C@H](Cc3ccccc3Cl)NC(=O)c3ccc(F)cc3)cc2)C(=O)N[C@@H](Cc2ccccc2)C(=O)NCCCCCN1 [Compound 309]	100 to 1000 nM	
O=C1CNC(=O)[C@@H](Cc2ccc(NC(=O)[C@H](Cc3ccccc3Cl)NC(=O)c3ccc(O)c(F)c3)cc2)NC(=O)CC2(CCCC2)CC(=O)NCCCCCN1 [Compound 277]	100 to 1000 nM	
COCC(=O)N[C@@H](Cc1ccccc1Cl)C(=O)Nc1ccc(C[C@H]2NC(=O)CC3(CCCC3)CC(=O)NCCCCCNC(=O)CNC2=O)cc1 [Compound 234]	100 to 1000 nM	

More lines, now with the values ahead:

IC50 [1]	IC50 [2]	SMILES
< 100 nM	< 100 nM	O=C1CNC(=O)[C@@H](Cc2ccc(NC(=O)[C@@H](NC(=O)Cc3ccc(F)cc3F)C3CCCCC3)cc2)NC(=O)CC2(CCCC2)CC(=O)NCCCCCN1 [Compound 374]
< 100 nM	< 100 nM	CN1CCCCCNC(=O)CNC(=O)[C@@H](Cc2ccc(NC(=O)[C@H](Cc3ccccc3Cl)NC(=O)Cc3ccccc3)cc2)NC(=O)CC2(CCCC2)CC1=O [Compound 280]
< 100 nM	100 to 1000 nM	CC(=O)N[C@H](C(=O)Nc1ccc(C[C@H]2NC(=O)CC3(CCCC3)CC(=O)NCCCCCNC(=O)CNC2=O)cc1)C1CCCCC1 [Compound 377]
< 100 nM		O=C1CC2(CCCC2)CC(=O)N[C@H](Cc2ccc(NC(=O)[C@H](Cc3ccccc3Cl)NC(=O)Cc3ccccc3)cc2)C(=O)N[C@@H](Cc2ccccc2)C(=O)NCCCCCN1 [Compound 317]
< 100 nM		O=C1CNC(=O)[C@@H](Cc2ccc(NC(=O)[C@H](Cc3ccccc3)NC(=O)Cc3ccccc3)cc2)NC(=O)CC2(CCCC2)CC(=O)NCCCCCN1 [Compound 237]
< 100 nM		O=C1CNC(=O)[C@@H](Cc2ccc(NC(=O)[C@H](Cc3ccsc3)NC(=O)Cc3ccccc3)cc2)NC(=O)CC2(CCCC2)CC(=O)NCCCCCN1 [Compound 229]
< 100 nM		O=C1CNC(=O)[C@@H](Cc2ccc(NC(=O)[C@H](Cc3ccccc3Cl)NC(=O)Cc3ccc(O)cc3)cc2)NC(=O)CC2(CCCC2)CC(=O)NCCCCCN1 [Compound 279]
< 100 nM		COC(=O)[C@@H]1CCCCNC(=O)CNC(=O)[C@@H](Cc2ccc(NC(=O)[C@H](Cc3ccccc3Cl)NC(=O)c3cccnc3)cc2)NC(=O)CC2(CCCC2)CC(=O)N1 [Compound 250]
< 100 nM		CN1CCCCCNC(=O)CC2(CCCC2)CC(=O)N[C@H](Cc2ccc(NC(=O)[C@H](Cc3ccccc3Cl)NC(=O)Cc3ccccc3)cc2)C(=O)NCC1=O [Compound 281]
< 100 nM		O=C1CNC(=O)[C@@H](Cc2ccc(NC(=O)[C@H](Cc3ccccc3Cl)NC(=O)Cc3ccc(O)cc3)cc2)NC(=O)CC2(CCCC2)CC(=O)N[C@H](C(=O)O)CCCCN1 [Compound 265]
< 100 nM		COC(=O)[C@@H]1CCCCNC(=O)CC2(CCCC2)CC(=O)N[C@H](Cc2ccc(NC(=O)[C@H](Cc3ccccc3Cl)NC(=O)Cc3ccccc3)cc2)C(=O)NCC(=O)N1 [Compound 285]
< 100 nM		O=C1CNC(=O)[C@@H](Cc2ccc(NC(=O)[C@H](Cc3ccccc3Cl)NC(=O)Cc3ccc(F)c(F)c3)cc2)NC(=O)CC2(CCCC2)CC(=O)NCCCCCN1 [Compound 298]
< 100 nM		CN1CCCCCNC(=O)CC2(CCCC2)CC(=O)N[C@H](Cc2ccc(NC(=O)[C@H](Cc3ccccc3Cl)NC(=O)Cc3ccc(O)cc3)cc2)C(=O)NCC1=O [Compound 307]

From patent US9284283B2, “Macrocyclic compounds for modulating IL-17” (ENSEMBLE THERAPEUTICS CORPORATION, priority 2012, dated 2016)
